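Grown in 96-well plates, cells were treated for 48 hours with each compound at five concentrations. Insufficient inhibition: endpoint recorded as highest concentration tested. TGI: concentration producing complete growth inhibition.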
Experiments:
Assay in all cases: DTP human tumour cell line panel, 48 h
CAKI-1 renal = test system: CAKI-1 renal
EKVX NSCLC = test system: EKVX NSCLC
HCT-116 colon = test system: HCT-116 colon
HOP-62 NSCLC = test system: HOP-62 NSCLC
HT29 colon = test system: HT29 colon
KM12 colon = test system: KM12 colon
OVCAR-3 ovarian = test system: OVCAR-3 ovarian
OVCAR-5 ovarian = test system: OVCAR-5 ovarian
SK-MEL-28 melanoma = test system: SK-MEL-28 melanoma
SK-MEL-5 melanoma = test system: SK-MEL-5 melanoma
UO-31 renal = test system: UO-31 renal
MALME-3M melanoma = test system: MALME-3M melanoma

| Structure (SMILES) | TGI (CAKI-1 renal) | TGI (EKVX NSCLC) | TGI (HCT-116 colon) | TGI (HOP-62 NSCLC) | TGI (HT29 colon) | TGI (KM12 colon) | TGI (OVCAR-3 ovarian) | TGI (OVCAR-5 ovarian) | TGI (SK-MEL-28 melanoma) | TGI (SK-MEL-5 melanoma) | TGI (UO-31 renal) | TGI (MALME-3M melanoma) |
| --- | --- | --- | --- | --- | --- | --- | --- | --- | --- | --- | --- | --- |
| CC1(C)OC(=S)N(c2ccccc2)C12C=Cc1ccccc1O2 (stereo unspecified) | > 100 µM | > 100 µM | > 100 µM | > 100 µM | > 100 µM | > 100 µM | > 100 µM | > 100 µM | > 100 µM | > 100 µM | > 100 µM |  |
| CCOP1(=O)C=C(C)C(Cl)=C(C)C1 (stereo unspecified) |  | > 100 µM | 41.4 µM | > 100 µM | 79.6 µM | 34.5 µM | > 100 µM | > 100 µM | 56.7 µM | > 100 µM | > 100 µM |  |
| C[C@]12C[C@@H](OC(=O)[C@]1(C)O)[C@@H]([C@]1(O)CC[C@H]3[C@@H]4C[C@H]5O[C@]56C[C@H]5O[C@H]5C(=O)[C@]6(C)[C@H]4CC[C@@]31C)C2 | > 50 µM | > 50 µM | > 50 µM | > 50 µM | > 50 µM | > 50 µM |  | > 50 µM | > 50 µM | > 50 µM | > 50 µM | > 5 µM |
| Cc1cn(CCCCC2=NCCCN2)c(=O)[nH]c1=O | > 23.4 µM | > 42 µM | > 29.3 µM | > 60.7 µM | > 23.1 µM | > 48.9 µM | > 33.1 µM | > 42.5 µM | > 32.9 µM | > 38.1 µM | > 31 µM |  |
| Cc1ccc2nc(N/N=C/c3sccc3C)cc(C)c2c1 | > 100 µM | > 100 µM | > 100 µM | > 100 µM | > 100 µM | > 100 µM | > 100 µM | > 100 µM | > 100 µM | > 100 µM | > 100 µM |  |
| CC1=NC(=Cc2ccccc2O)C(=O)N1n1c(-c2ccccc2)nc2ccccc2c1=O |  | > 100 µM | > 100 µM | > 100 µM | > 100 µM | > 100 µM | > 100 µM | > 100 µM | > 100 µM | 61.4 µM | > 100 µM | > 100 µM |
| CC1=C(O)C2=C(C(=O)C1=O)[C@@H](C)CC[C@@H]2[C@@H](C)C/C=C/C(C)(C)O | > 100 µM |  | > 100 µM | > 100 µM | > 100 µM | > 100 µM | 79.2 µM | > 100 µM |  | > 100 µM | > 100 µM |  |
| CCOC(=O)NNC(=O)NCc1cccc(CNC(=O)NNC(=O)OCC)c1 | > 100 µM | > 100 µM | > 100 µM |  | > 100 µM | > 100 µM | > 100 µM | > 100 µM | > 100 µM | > 100 µM | > 100 µM | > 100 µM |
| O=C(NC1CCN(Cc2ccccc2)CC1)c1ccc(I)cc1 | > 100 µM | > 100 µM | > 100 µM | > 100 µM | > 100 µM | > 100 µM | > 100 µM | > 100 µM | > 100 µM | > 100 µM | > 100 µM |  |
| COc1ccc(/C=N/n2c(C)n[nH]c2=O)c(OC)c1 | > 100 µM | > 100 µM | > 100 µM | > 100 µM | > 100 µM | > 100 µM | > 100 µM | > 100 µM | > 100 µM |  | > 100 µM | > 100 µM |
| NS(=O)(=O)c1nnc(NS(=O)(=O)C(F)(F)F)s1 | > 100 µM | > 100 µM | > 100 µM | > 100 µM | > 100 µM | > 100 µM | > 100 µM | > 100 µM | > 100 µM |  | > 100 µM | > 100 µM |
| Oc1ccc2cc(Br)ccc2c1-c1c(O)ccc2ccc(Br)cc12 | 34 µM |  | 27.4 µM | 28.5 µM | 10.1 µM | 18.9 µM | 27.8 µM | 30.8 µM | 33.5 µM | 37.5 µM | 28.8 µM | 26.6 µM |
| COC(=O)c1cc2c(c3c1CC(Cc1ccccc1)C3=O)CCC2 (stereo unspecified) |  | > 100 µM | > 100 µM | > 100 µM | > 100 µM | 41.8 µM | > 100 µM | > 100 µM | > 100 µM | > 100 µM |  | > 100 µM |
| COC(=O)c1ccc(S)c(S(=O)(=O)Nc2n[nH]c(N)n2)c1 | > 100 µM | > 100 µM | > 100 µM |  | > 100 µM | > 100 µM | > 100 µM | > 100 µM | > 100 µM | > 100 µM | > 100 µM | > 100 µM |
| [N-]=[N+]=NI1OC(=O)c2ccccc21 | 46.9 µM | > 100 µM | > 100 µM | > 100 µM | > 100 µM | > 100 µM | > 100 µM | > 100 µM | > 100 µM |  | > 100 µM |  |
| CCOC(=O)CNC(=O)C(CSC(=O)N(O)c1ccc(Cl)cc1)NC(=O)CCC(N)C(=O)OCC (stereo unspecified) | > 50 µM | > 50 µM | > 50 µM | > 50 µM | > 50 µM | > 50 µM | > 50 µM | > 50 µM | > 50 µM | > 50 µM | > 50 µM |  |

| Structure (SMILES) | TGI (CAKI-1 renal) | TGI (EKVX NSCLC) | TGI (HCT-116 colon) | TGI (HOP-62 NSCLC) | TGI (HT29 colon) | TGI (KM12 colon) | TGI (OVCAR-3 ovarian) | TGI (OVCAR-5 ovarian) | TGI (SK-MEL-28 melanoma) | TGI (SK-MEL-5 melanoma) | TGI (UO-31 renal) | TGI (MALME-3M melanoma) |
| --- | --- | --- | --- | --- | --- | --- | --- | --- | --- | --- | --- | --- |
| COc1ccc(OC)c(CNc2ccc(C(=O)O)cc2)c1 | > 100 µM | > 100 µM | > 100 µM |  | > 100 µM | > 100 µM | > 100 µM | > 100 µM | > 100 µM | > 100 µM | > 100 µM | > 100 µM |
| O=C1C(Cl)C2(CC(/C=C/c3ccccc3)=NN2c2cccc(S(=O)(=O)O)c2)N1c1nc2ccccc2s1 (stereo unspecified) | 22.6 µM | 41 µM | 56.1 µM |  | 37.2 µM | 30.9 µM |  | 35.5 µM | > 100 µM | 30.2 µM | 16.1 µM | 33.3 µM |
| CN(C)C(=NCc1ccccc1)NC#N | > 100 µM | > 100 µM | > 100 µM | > 100 µM | > 100 µM | > 100 µM | > 100 µM |  | > 100 µM | > 100 µM | > 100 µM |  |
| COc1ccc(/C(Br)=C2\OC(=O)c3ccccc32)cc1 | > 10 µM | > 10 µM | > 10 µM | > 10 µM | > 10 µM | > 10 µM | > 10 µM | > 10 µM | > 10 µM | > 10 µM | > 10 µM |  |
| COc1cc(O)c2c(=O)c(O)c(-c3ccc(O)c(OC)c3)oc2c1 | > 100 µM | > 100 µM | > 100 µM |  | > 100 µM | > 100 µM | > 100 µM | > 100 µM |  | > 34.9 µM |  | > 100 µM |
| CCCC1CCC(=C2C(=O)CCC2=O)O1 (stereo unspecified) | > 100 µM | > 100 µM | > 100 µM | > 100 µM | > 100 µM | > 100 µM | > 100 µM | > 100 µM | > 100 µM |  | > 100 µM |  |
| O=C1CSC2(CC(/C=C/c3cccc([N+](=O)[O-])c3)=NN2c2cccc(S(=O)(=O)O)c2)N1c1nc2ccccc2s1 (stereo unspecified) | > 100 µM | > 100 µM | > 100 µM |  | > 100 µM | 42.2 µM |  | 52.1 µM | > 100 µM | > 100 µM | 34.3 µM | > 100 µM |
| CCCCCCCC1(N=[N+]=[N-])C(=O)Nc2ccccc2C1=O (stereo unspecified) | 27.8 µM |  | 32.6 µM | 32 µM | 56.8 µM | 57.7 µM | 29.6 µM | 34 µM | 30.7 µM | 28.4 µM | 25.3 µM | 33.4 µM |
| CCOC(=O)c1nc2cc(C(F)(F)F)ccc2nc1Nc1ccc(OC)cc1 | > 100 µM | > 100 µM | > 100 µM | > 100 µM | > 100 µM | > 100 µM | > 100 µM | > 100 µM | > 100 µM | > 100 µM | > 100 µM |  |
| CC1(C)CNCC(C)(OCc2ccccc2)C(=O)NC(C)(C)CNCC(C)(OCc2ccccc2)C(=O)N1 (stereo unspecified) |  | > 10 µM | > 10 µM | > 10 µM |  | > 10 µM | > 10 µM | > 10 µM | > 10 µM | > 10 µM | > 10 µM | > 10 µM |
| COc1c(=O)cc2cc[nH]c3ccn(C)c1c23 | > 100 µM | > 100 µM | > 100 µM | > 100 µM |  | > 100 µM | > 100 µM | > 100 µM | > 100 µM |  | > 100 µM |  |
| CCCCc1ccc(-n2sc3ncc(C)cc3c2=O)cc1 |  | 46.9 µM | > 100 µM | > 100 µM |  | > 100 µM | 47.8 µM | 57.6 µM | > 100 µM | 46.2 µM | 20.2 µM | 90.1 µM |
| C/C(=C\CBr)CCC(Br)C(C)(C)Cl (stereo unspecified) | > 100 µM |  | > 100 µM | > 100 µM | > 100 µM | > 100 µM |  | > 100 µM | > 100 µM | > 100 µM | > 100 µM | > 100 µM |
| CC(=O)C1=CN=C2C(=O)N(c3ccccc3)N(C)C12C (stereo unspecified) | > 100 µM | > 100 µM | > 100 µM |  |  | 46.8 µM | > 100 µM | > 100 µM |  | > 100 µM | > 100 µM | > 100 µM |
